Measurements: ChEMBL document CHEMBL1126539, “Oxazole, thiazole, and imidazole derivatives of 2,6-di-tert-butylphenol as dual 5-lipoxygenase and cyclooxygenase inhibitors” (Bioorg Med Chem Lett, 1993)

What was measured:
RBL-1 [1] = test: Compound was tested for its inhibitory activity against LTB4 (5-LO) formation in RBL-1 cells stimulated with the calcium ionophore A-23187; format: functional, cell-based; conditions: Rattus norvegicus
RBL-1 [2] = test: Compound was tested for its inhibitory activity against PGF-2 alpha (CO) formation in RBL-1 cells stimulated with the calcium ionophore A-23187; format: functional, cell-based; conditions: Rattus norvegicus
Rattus norvegicus = test: Compound was tested for inhibition of edema in the carrageenan foot-pad edema test; inactive; format: functional

Row | IC50 (RBL-1 [1]) [nM] | IC50 (RBL-1 [2]) [nM] | SMILES | Inhibition (Rattus norvegicus) [%]
1 | 910 | 83 | CC(C)(C)c1cc(/C=C2\SC(N=C(N)N)=NC2=O)cc(C(C)(C)C)c1O | –
2 | 840 | 1700 | CC(C)(C)c1cc(/C=C2\OC(=S)NC2=O)cc(C(C)(C)C)c1O | –
3 | 780 | 4600 | CN1C(=O)NC(=O)/C1=C/c1cc(C(C)(C)C)c(O)c(C(C)(C)C)c1 | <25
4 | – | 350 | CC(C)(C)c1cc(/C=C2\SC(=O)NC2=O)cc(C(C)(C)C)c1O | –
5 | 170 | 790 | CN1C(=S)NC(=O)/C1=C/c1cc(C(C)(C)C)c(O)c(C(C)(C)C)c1 | <25

The next lines start with the molecule.

Row | SMILES | IC50 (RBL-1 [1]) [nM] | IC50 (RBL-1 [2]) [nM] | Inhibition (Rattus norvegicus) [%]
6 | CC(C)(C)c1cc(/C=C2\OC(N=C(N)N)=NC2=O)cc(C(C)(C)C)c1O | 1200 | 340 | –
7 | CN1C(NC(=N)N)=NC(=O)/C1=C/c1cc(C(C)(C)C)c(O)c(C(C)(C)C)c1 | 1300 | 2100 | <25
8 | CC(C)(C)c1cc(/C=C2\SC(=S)NC2=O)cc(C(C)(C)C)c1O | 380 | 12 | –
9 | CC(C)(C)c1cc(/C=C2\OC(=O)NC2=O)cc(C(C)(C)C)c1O | 2800 | 650 | –
10 | CC(C)(C)c1cc(/C=C2\SC(=N)NC2=O)cc(C(C)(C)C)c1O [DARBUFELONE] | 1200 | 110 | –
11 | Cc1ccc(Cl)c(Nc2ccccc2C(=O)O)c1Cl [MECLOFENAMATE SODIUM] | 24000 | – | –
